Values of other authors, collected in patent US8791078B2, “Cell protection in dialysis patients by administration of a creatine compound” (Crearene Ltd., priority 2009, dated 2014).

Tests used:
[1] = test system: serum levels of homocysteine; conditions: creatine supplementation
[2] = molecular target: T1, creatine Transporter Protein (CrT) (Homo sapiens, UniProt P48029); conditions: CrT in the plasma membrane
T1 sequence (P48029 1-635): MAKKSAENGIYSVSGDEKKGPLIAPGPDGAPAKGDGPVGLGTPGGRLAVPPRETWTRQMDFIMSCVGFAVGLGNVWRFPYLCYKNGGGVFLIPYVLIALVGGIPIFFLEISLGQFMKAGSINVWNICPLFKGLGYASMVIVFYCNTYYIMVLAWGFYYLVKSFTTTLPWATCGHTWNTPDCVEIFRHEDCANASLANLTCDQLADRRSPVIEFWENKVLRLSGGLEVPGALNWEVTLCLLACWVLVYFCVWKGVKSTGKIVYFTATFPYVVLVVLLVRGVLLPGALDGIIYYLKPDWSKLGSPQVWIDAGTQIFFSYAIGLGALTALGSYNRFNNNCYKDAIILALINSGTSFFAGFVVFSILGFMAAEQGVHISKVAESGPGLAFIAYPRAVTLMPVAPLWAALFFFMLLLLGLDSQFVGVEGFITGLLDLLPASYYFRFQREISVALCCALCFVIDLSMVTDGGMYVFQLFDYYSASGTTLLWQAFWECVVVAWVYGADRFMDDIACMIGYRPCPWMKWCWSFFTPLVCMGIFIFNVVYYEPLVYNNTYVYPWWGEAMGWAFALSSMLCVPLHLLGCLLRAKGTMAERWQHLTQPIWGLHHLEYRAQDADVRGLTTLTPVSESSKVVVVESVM

[3] = test system: total plasma homocysteine; conditions: chronic haemodialysis patients, oral creatine (2 giday)
[4] = test system: muscle cramps associated with haemodialysis; set-up: dose or concentration left out as unconfirmed; conditions: oral, before each dialysis session for 4 weeks

CN(CC(=O)O)C(=N)N [creatine]
effect on serum levels of homocysteine [1]: reduce serum levels of homocysteine
Km [2]: 25 to 30 µM
effect on total plasma homocysteine [3]: does not decrease total plasma homocysteine

CN(CC(=O)O)C(=N)N.O [creatine monohydrate]
effect on muscle cramps associated with haemodialysis [4]: alleviates muscle cramps associated with haemodialysis
